According to ChEMBL document CHEMBL3272102, “Carboxyarylindoles as nonsteroidal antiinflammatory agents” (J Med Chem, 1976):

Tests used:
Rattus norvegicus [1] = test: Antiinflammatory activity in Wistar rat assessed as inhibition of carrageenan-induced paw edema at 200 mg/kg, po administered 30 mins prior to 1%, sc carrageenan challenge measured after 3 hrs; assay type: functional
Rattus norvegicus [2] = test: Antiinflammatory activity in po dosed Wistar rat assessed as inhibition of carrageenan-induced paw edema administered 30 mins prior to 1%, sc carrageenan challenge measured after 3 hrs; assay type: functional
Rattus norvegicus [3] = test: Toxicity in po dosed Wistar rat; assay type: organism-based; conditions: in vivo
Rattus norvegicus [4] = test: Antiinflammatory activity in po dosed Wistar rat assessed as inhibition of carrageenan-induced paw edema administered 60 mins prior to 1%, sc carrageenan challenge measured after 3 hrs; assay type: functional
Rattus norvegicus [5] = test: Antiinflammatory activity in po dosed Wistar rat assessed as inhibition of carrageenan-induced paw edema administered 120 mins prior to 1%, sc carrageenan challenge measured after 3 hrs; assay type: functional

With `O=C(O)c1cc(-n2c(-c3ccccc3)cc3c2CCCC3)ccc1O` the inhibition in vivo at 200 mg/kg (Rattus norvegicus [1]) was at least 60% and the ED50 (Rattus norvegicus [2]) was 87 mg/kg.

For `O=C(O)c1cccc(-n2c(-c3ccccc3)cc3c2CCCC3)c1`, the inhibition in vivo at 200 mg/kg (Rattus norvegicus [1]) was 20%.

`O=C(O)c1ccc(-n2c(-c3ccccc3)cc3c2CCCC3)cc1O` gave an inhibition in vivo at 200 mg/kg (Rattus norvegicus [1]) of 0%.

Work on `CC(=O)Oc1ccc(-n2c(-c3ccccc3)cc3c2CCCC3)cc1C(=O)O` yielded an inhibition in vivo at 200 mg/kg (Rattus norvegicus [1]) of 50%.

With `COc1ccc(-n2c(-c3ccccc3)cc3c2CCCC3)cc1C(=O)O` the inhibition in vivo at 200 mg/kg (Rattus norvegicus [1]) was 40%.

`CC(=O)Nc1ccc(-n2c(-c3ccccc3)cc3c2CCCC3)cc1C(=O)O` was tested, and the inhibition in vivo at 200 mg/kg (Rattus norvegicus [1]) was 30%.

Compound `Nc1ccc(-n2c(-c3ccccc3)cc3c2CCCC3)cc1C(=O)O` has an inhibition in vivo at 200 mg/kg (Rattus norvegicus [1]) of 40%.

Work on `O=C(O)c1cc(-n2c(-c3ccccc3)cc3c2CCCC3)ccc1Cl` yielded an inhibition in vivo at 200 mg/kg (Rattus norvegicus [1]) of 40%.

Compound `COC(=O)c1cc(-n2c(-c3ccccc3)cc3c2CCCC3)ccc1O` has an inhibition in vivo at 200 mg/kg (Rattus norvegicus [1]) of 0%.

`COC(=O)c1cc(-n2c(-c3ccccc3)cc3c2CCCC3)ccc1OC(=S)N(C)C` gave an inhibition in vivo at 200 mg/kg (Rattus norvegicus [1]) of 0%.

In the case of `COC(=O)c1cc(-n2c(-c3ccccc3)cc3c2CCCC3)ccc1SC(=O)N(C)C`, the inhibition in vivo at 200 mg/kg (Rattus norvegicus [1]) is reported as 0%.

Compound `O=C(O)c1cc(-n2c(-c3ccccc3)cc3c2CCCC3)ccc1S` has an inhibition in vivo at 200 mg/kg (Rattus norvegicus [1]) of 50%.

For `CCNC(=O)c1cc(-n2c(-c3ccccc3)cc3c2CCc2ccccc2-3)ccc1O`, the inhibition in vivo at 200 mg/kg (Rattus norvegicus [1]) was 0%.

`O=C(O)c1cc(-n2c(-c3ccccc3)cc3c2CCCC3)c(C(F)(F)F)cc1O` was tested, and the inhibition in vivo at 200 mg/kg (Rattus norvegicus [1]) was 0%.

`O=C(O)c1cc(-n2c(-c3ccccc3)cc3c2CCCC3)cc(Br)c1O` gave an inhibition in vivo at 200 mg/kg (Rattus norvegicus [1]) of 0%.

`O=C(O)c1cc(-n2c(-c3ccccc3)cc3c2CCCC3)cc(Cl)c1O` gave an inhibition in vivo at 200 mg/kg (Rattus norvegicus [1]) of 0%.

Compound `CC(=O)Nc1cc(-n2c(-c3ccccc3)cc3c2CCCC3)cc(C(=O)O)c1O` has an inhibition in vivo at 200 mg/kg (Rattus norvegicus [1]) of 0%.

Work on `COc1ccc(-c2cc3c(n2-c2ccc(O)c(C(=O)O)c2)CCCC3)cc1` yielded an inhibition in vivo at 200 mg/kg (Rattus norvegicus [1]) of 50% and an ED50 (Rattus norvegicus [2]) of 173 mg/kg.

Compound `COc1cccc(-c2cc3c(n2-c2ccc(O)c(C(=O)O)c2)CCCC3)c1` has an inhibition in vivo at 200 mg/kg (Rattus norvegicus [1]) of 20%.

`COc1ccccc1-c1cc2c(n1-c1ccc(O)c(C(=O)O)c1)CCCC2` gave an inhibition in vivo at 200 mg/kg (Rattus norvegicus [1]) of 50%.

In the case of `Cc1ccc(-c2cc3c(n2-c2ccc(O)c(C(=O)O)c2)CCCC3)cc1`, the inhibition in vivo at 200 mg/kg (Rattus norvegicus [1]) is reported as 30%.

`O=C(O)c1cc(-n2c(-c3ccc(F)cc3)cc3c2CCCC3)ccc1O` showed an inhibition in vivo at 200 mg/kg (Rattus norvegicus [1]) of at least 60% and an ED50 (Rattus norvegicus [2]) of 88 mg/kg.

In the case of `O=C(O)c1cc(-n2c(-c3ccc(Br)cc3)cc3c2CCCC3)ccc1O`, the inhibition in vivo at 200 mg/kg (Rattus norvegicus [1]) is reported as 40%.

In the case of `O=C(O)c1cc(-n2c(-c3ccc(Cl)cc3)cc3c2CCCC3)ccc1O`, the inhibition in vivo at 200 mg/kg (Rattus norvegicus [1]) is reported as 40%.

Compound `O=C(O)c1cc(-n2c(-c3ccc(Cl)c(Cl)c3)cc3c2CCCC3)ccc1O` has an inhibition in vivo at 200 mg/kg (Rattus norvegicus [1]) of 0%.

Work on `O=C(O)c1cc(-n2c(-c3ccc(O)cc3)cc3c2CCCC3)ccc1O` yielded an inhibition in vivo at 200 mg/kg (Rattus norvegicus [1]) of 20%.

With `O=C(O)c1cc(-n2c(-c3cccc(C(F)(F)F)c3)cc3c2CCCC3)ccc1O` the inhibition in vivo at 200 mg/kg (Rattus norvegicus [1]) was 20%.

Compound `N#Cc1ccc(-c2cc3c(n2-c2ccc(O)c(C(=O)O)c2)CCCC3)cc1` has an inhibition in vivo at 200 mg/kg (Rattus norvegicus [1]) of 0%.

`O=C(O)c1cc(-n2c(-c3ccc([N+](=O)[O-])cc3)cc3c2CCCC3)ccc1O` was tested, and the inhibition in vivo at 200 mg/kg (Rattus norvegicus [1]) was 30%.

For `O=C(O)c1cc(-n2c(-c3cccs3)cc3c2CCCC3)ccc1O`, the inhibition in vivo at 200 mg/kg (Rattus norvegicus [1]) was 30%.

`O=C(O)c1cc(-n2c(-c3ccc(-c4ccccc4)cc3)cc3c2CCCC3)ccc1O` gave an inhibition in vivo at 200 mg/kg (Rattus norvegicus [1]) of 50% and an ED50 (Rattus norvegicus [2]) of 162 mg/kg.

Work on `CC(C)(C)c1cc2c(n1-c1ccc(O)c(C(=O)O)c1)CCc1ccccc1-2` yielded an inhibition in vivo at 200 mg/kg (Rattus norvegicus [1]) of 40%.

`O=C(O)c1cc(-n2c3c(c(-c4ccccc4)c2-c2ccccc2)CCCC3)ccc1O` showed an inhibition in vivo at 200 mg/kg (Rattus norvegicus [1]) of 30%.

In the case of `CC(=O)c1c2c(n(-c3ccc(O)c(C(=O)O)c3)c1-c1ccccc1)CCc1ccccc1-2`, the inhibition in vivo at 200 mg/kg (Rattus norvegicus [1]) is reported as 0%.

In the case of `O=C(O)c1cc(-n2c(-c3ccccc3)cc3c2CCC3)ccc1O`, the Activity (Rattus norvegicus [3]) is reported as “Toxic” and the inhibition in vivo at 200 mg/kg (Rattus norvegicus [1]) is reported as 40%.

For `O=C(O)c1cc(-n2c(-c3ccccc3)cc3c2CCCCC3)ccc1O`, the Activity (Rattus norvegicus [3]) was “Toxic” and the inhibition in vivo at 200 mg/kg (Rattus norvegicus [1]) was 50%.

`O=C(O)c1cc(-n2c(-c3ccccc3)cc3c2CCCC3=O)ccc1O` gave an inhibition in vivo at 200 mg/kg (Rattus norvegicus [1]) of 0%.

Compound `COC1CCc2c(cc(-c3ccccc3)n2-c2ccc(O)c(C(=O)O)c2)C1` (stereo not given) has an inhibition in vivo at 200 mg/kg (Rattus norvegicus [1]) of 40%.

`CC1CCc2c(cc(-c3ccccc3)n2-c2ccc(O)c(C(=O)O)c2)C1` (stereo not given) gave an inhibition in vivo at 200 mg/kg (Rattus norvegicus [1]) of 40%.

Work on `CC(C)(C)C1CCc2c(cc(-c3ccccc3)n2-c2ccc(O)c(C(=O)O)c2)C1` (stereo not given) yielded an inhibition in vivo at 200 mg/kg (Rattus norvegicus [1]) of 0%.

Work on `O=C(O)c1cc(-n2c(-c3ccccc3)cc3c2-c2ccccc2CC3)ccc1O` yielded an inhibition in vivo at 200 mg/kg (Rattus norvegicus [1]) of 0%.

In the case of `O=C(O)c1cc(-n2c(-c3ccccc3)cc3c2CCc2cc(Cl)ccc2-3)ccc1O`, the inhibition in vivo at 200 mg/kg (Rattus norvegicus [1]) is reported as 50%.

In the case of `COc1ccc2c(c1)CCc1c-2cc(-c2ccccc2)n1-c1ccc(O)c(C(=O)O)c1`, the ED50 (Rattus norvegicus [4]) is reported as 164 mg/kg and the inhibition in vivo at 200 mg/kg (Rattus norvegicus [1]) is reported as 50%.

`O=C(O)c1cc(-n2c(-c3ccccc3)cc3c2Cc2ccccc2-3)ccc1O` gave an inhibition in vivo at 200 mg/kg (Rattus norvegicus [1]) of 30%.

`COC(=O)c1cc(-n2c(-c3ccccc3)cc3c2CCc2ccccc2-3)ccc1O` showed an inhibition in vivo at 200 mg/kg (Rattus norvegicus [1]) of 30%.

`CCOC(=O)c1cc(-n2c(-c3ccccc3)cc3c2CCc2ccccc2-3)ccc1O` showed an inhibition in vivo at 200 mg/kg (Rattus norvegicus [1]) of 0%.

Compound `CC(=O)Oc1ccc(-n2c(-c3ccccc3)cc3c2CCc2ccccc2-3)cc1C(=O)O` has an ED50 (Rattus norvegicus [5]) of 75 mg/kg and an inhibition in vivo at 200 mg/kg (Rattus norvegicus [1]) of 50%.

`O=C(O)c1cc(-n2c(-c3ccccc3)cc3c4ccccc4ccc32)ccc1O` showed an ED50 (Rattus norvegicus [4]) of 69 mg/kg, an inhibition in vivo at 200 mg/kg (Rattus norvegicus [1]) of at least 60% and an ED50 (Rattus norvegicus [2]) of 105 mg/kg.

Work on `O=C(O)c1cc(-n2c(-c3ccccc3)cc3ccccc32)ccc1O` yielded an inhibition in vivo at 200 mg/kg (Rattus norvegicus [1]) of at least 60%.

In the case of `CC(C)(C)c1ccc2c(c1)cc(-c1ccccc1)n2-c1ccc(O)c(C(=O)O)c1`, the inhibition in vivo at 200 mg/kg (Rattus norvegicus [1]) is reported as 0%.

`CC(=O)Oc1ccccc1C(=O)O` [ASPIRIN] was tested, and the inhibition in vivo at 200 mg/kg (Rattus norvegicus [1]) was at least 60% and the ED50 (Rattus norvegicus [2]) was 140 mg/kg.

Compound `O=C(O)c1cc(-n2c(-c3ccccc3)cc3c2CCc2ccccc2-3)ccc1O` [FENDOSAL] has an ED50 (Rattus norvegicus [5]) of 66 mg/kg, an inhibition in vivo at 200 mg/kg (Rattus norvegicus [1]) of at least 60% and an ED50 (Rattus norvegicus [2]) of 125 mg/kg.
